Data as given in patent US8058228B2, “Leptin peptide antagonists” (Boston Biomedical Research Institute, priority 2004, dated 2011).

Test system: OB-R
Assay: p-Stat3 expression in rabbit endometrial cells (immunocytochemistry, Western blot)
Type: cell-based
Details: for effect on basal expression of p-Stat3 / effect on leptin up-regulation of Stat3 phosphorylation: rESC and rEEC; for effect on basal expression of p-Stat3: Western blot, 3 to 300 nM; for effect on leptin up-regulation of Stat3 phosphorylation: peptides 3 to 300 nM, antibody 1-10 μg/ml
Method: Rabbit endometrial cells (5×10^5 cells/well) were cultured for 5-9 days in DMEM-MCDB105 (3:1) medium containing 10% fetal bovine serum (FBS), 5 μg/ml insulin, 1% amphopthericin B, 100 μg/ml streptomycin and 100 U/ml penicillin until confluent layers were obtained. The cells were washed twice with 100 mM phosphate saline buffer (PBS) −2% BSA (w/v), pH 7.2 and cultured for an additional 2 days in the same medium but without FBS (basal medium). This procedure was performed to reduce any effects of cytokines from FBS on the phosphorylation rate of Stat3 as well as the expression of other cytokines and their receptors. Cells were washed as described before and cultured in basal medium containing leptin (0-10 nM), OB-R antibody (1-20 μg/ml) and/or LPA-2 peptides (0-300 nM). Cultures were stopped at 24 h and the cells were used for immunocytochemistry, binding studies and western blot analysis. The conditioned media were collected, lyophilized and stored at −80° C. for ELISA determinations. Duplicate wells were run for each treatment and the experiments repeated at least three times with different cell preparations from different rabbits. Controls were the same cellular preparations cultured in basal medium containing non-specific goat IgGs and LPA-2Sc.
The rabbit endometrial cells were cultured as described above in duplicate on 8-well glass-bottom culture plates (Nalgene Nunc International, Naperville, Ill.) and fixed with methanol at −20° C. for 20 min for immunocytochemical studies. All the antibodies tested were diluted in PBS-2% BSA (w/v; buffer A).
Anti IL-1R tl (1 μg/ml), anti LIF-R (2 μg/ml), anti vimentin (1:50), anti cytokeratin (1:50) and anti p-Stat3 (1 μg/ml) antibodies were used to assess the expression of the respective antigens by rEEC and rESC cultures. After incubation with primary antibodies the cells were incubated with a streptavidin-biotin-alkaline phosphatase system according to the manufacturer directions (Vectastain, ABC-AP kit, Vector Laboratories, Burlingame, Calif.) and counter-stained with hematoxylin (Dako). Negative controls included cell preparations in which the primary antibodies were substituted by irrelevant species matched IgGs.
After culture in the presence of leptin, LPAs or antibodies, the endometrial cells were washed with ice-cold PBS and lysed by homogenization on ice with lysis buffer [[…] Tris, pH 7.4, containing 137 nM NaCl, 2 mM EDTA, 10% glycerol, 50 mM β-glycerophosphate, 50 nM NaF, 1% Nonidet P-40, 2 mM phenyl-methylsulfonyl fluoride, 2 mM sodium orthovanadate, 100 μM antipain, 0.1 mg/ml trypsin inhibitor and protease cocktail inhibitor 1:50 (Sigma)]. Cellular lysates were centrifuged at 24000 g at 4° C. for 10 min. Protein concentrations were determined using the Bradford protein assay (BioRad Laboratories Inc., Hercules, Calif.).
Protein extracts from cell lysates were combined (1:1) with Laemmli buffer (2× concentrated) and 10 μg of proteins were loaded per lane on 7.5% (for p-Stat3, IL-1R tl and LIF-R) and 10% (for OB-R) SDS-PAGE gels. Electrophoresis was performed at 65 V for 1-1.5 h (BioRad, electrophoresis apparatus). Electroblotting onto 0.2 μm nitrocellulose membranes was performed at 22V overnight at 4° C. in 48 nM Tris-39 nM glycine buffer containing 0.037% SDS and 20% methanol. […]

| Substance | effect on basal expression of p-Stat3 | effect on leptin up-regulation of Stat3 phosphorylation (leptin 3 nM) | p-Stat3 expression after leptin (rESC, immunocytochemistry, leptin 3 nM) |
| --- | --- | --- | --- |
| SRNVIQISNDLENLRDLLHVLAFSKS [LPA-2, 26 amino acid peptide, residues 70-95 of helix III of the human leptin molecule; leptin peptide antagonist] | effectively inhibited the basal expression of p-Stat3 | significantly inhibits the leptin up-regulation of Stat3 phosphorylation |  |
| VAEVLNRSDLIQRISFSLDLNNSKLH [LPA-2Sc, scrambled version of LPA-2, negative control, reference compound] | No inhibitory effect on p-Stat3 expression | not observed |  |
| leptin: human recombinant leptin (R&D Systems), OB-R ligand used as stimulus |  |  | up-regulated |
